We go through eleven compounds from patent publication US12077503B2, “Substituted cyclic amides and their use as herbicides” (FMC CORPORATION, priority 2015, dated 2024).

Type in all cases: in vivo
The subject of test [1] is sedge, umbrella (small-flower umbrella sedge, Cyperus difformis). Briefly: Test B flooded paddy test. Particulars: Cyperus difformis, Flood, 250 g ai/ha; scale of 0 to 100 where 0 is no effect and 100 is complete control; read-out: Sedge, Umbrella plant response rating. An outline of the steps:
(§1)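 2-leaf plants; pots flooded 3 cm over soil; cpd added to paddy water; depth held; greenhouse 13–15 d; visual rating vs controls, 0 = no effect, 100 = complete control.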

Test [2] has as its system barnyardgrass (Echinochloa crus-galli). Kind of test: Test B flooded paddy test. The conditions noted are these: Echinochloa crus-galli, Flood, 250 g ai/ha; scale of 0 to 100 where 0 is no effect and 100 is complete control; read-out: Barnyardgrass plant response rating. An outline of the steps: as §1
The test system of test [3] is ducksalad (Heteranthera limosa). Briefly: Test B flooded paddy test. The conditions noted are these: Heteranthera limosa, Flood, 250 g ai/ha; scale of 0 to 100 where 0 is no effect and 100 is complete control; read-out: Ducksalad plant response rating. Summed up:
as §1

Another test deals with rice (Oryra sativa). Briefly: Test B flooded paddy test. Particulars: Oryza sativa, Flood, 250 g ai/ha; scale of 0 to 100 where 0 is no effect and 100 is complete control; read-out: Rice plant response rating. Summed up:
as §1

Test [4] relates to wheat (Triticum aestivum). Kind of test: Test A postemergence. Particulars: Triticum aestivum, post-emergence, 240 h, read-out: Plant response rating, Wheat; for plant injury at 125 g/ha: 125 g ai/ha, postemergence, visual injury after approximately 10 d, 0 to 100 scale (0 no effect, 100 complete control). Summed up:
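Preemergence directed soil spray on seeded pots, or postemergence application to plants 2–10 cm, one- to two-leaf. Solvent mixture non-phytotoxic, with surfactant. Scored ~10 d later, visually, 0–100 vs untreated.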

Turning to `CCc1cc(CC)cc([C@H]2CN(C)C(=O)[C@@H]2C(=O)Nc2cccc(F)c2F)c1` [Compound 736], the pest or weed control at 250 g/ha in test [1] was determined as 0%; in test [2], 40%; in test [3] it was 40%; in the test with rice (Oryra sativa) it was 0%. Besides, in test [4], the plant injury at 125 g/ha worked out at 50%.

Take `CN1C[C@H](c2ccc(F)c(OC(F)(F)C(F)F)c2)[C@@H](C(=O)Nc2ccccc2F)C1=O` [Compound 740]: the pest or weed control at 250 g/ha in test [1] was determined as 0%; in test [2], 60%; in test [3] it was 100%; in the test with rice (Oryra sativa), 50%. Moreover, the plant injury at 125 g/ha in test [4] is 50%.

`CN1C[C@H](c2cccc(C(F)(F)F)c2)[C@@H](C(=O)Nc2ccccc2C2CC2)C1=O` [Compound 749]: the pest or weed control at 250 g/ha in test [1] came to 0%; in test [2], 0%; in test [3], 20%; with rice (Oryra sativa), 0%. In addition, the plant injury at 125 g/ha in test [4] turned out to be 0%.

Take `O=C1NC[C@H](c2csc3ccccc23)[C@H]1C(=O)Nc1ccccc1F` [Compound 750]: the pest or weed control at 250 g/ha amounted to 0% in test [1], 0% in test [2], 90% in test [3] and 0% with rice (Oryra sativa). The plant injury at 125 g/ha in test [4] was 0%.

Turning to `O=C1NC[C@H](c2csc3ccccc23)[C@H]1C(=O)Nc1cccc(F)c1F` [Compound 751], the pest or weed control at 250 g/ha in test [1] was determined as 0%; in test [2], 40%; in test [3] it was 100%; in the test with rice (Oryra sativa), 30%. For the same compound, the plant injury at 125 g/ha in test [4] stood at 0%.

Take `Cc1ccc(NC(=O)[C@H]2C(=O)N(C)C[C@@H]2c2cc(F)cc(F)c2)c(F)c1` [Compound 760]: the pest or weed control at 250 g/ha came to 0% in test [1], 50% in test [2], 80% in test [3] and 0% with rice (Oryra sativa). Also, the plant injury at 125 g/ha in test [4] was 0%.

`Cc1ccc([C@H]2CNC(=S)[C@@H]2C(=O)Nc2cccc(F)c2F)cc1C` [Compound 765]: the pest or weed control at 250 g/ha in test [1] worked out at 0%; in test [2] it was 40%; in test [3] it was 100%; in the test on rice (Oryra sativa), 20%. Also, the plant injury at 125 g/ha in test [4] came out at 0%.

For `COc1cc([C@H]2CN(C)C(=O)[C@@H]2C(=O)Nc2ccccc2SC)ccc1C(F)(F)F` [Compound 769], the pest or weed control at 250 g/ha in test [1] was determined as 0%; in test [2], 0%; in test [3], 80%; in the test on rice (Oryra sativa), 15%. Moreover, the plant injury at 125 g/ha in test [4] is 0%.

With `Cc1ccc(NC(=O)[C@H]2C(=O)N(C)C[C@@H]2c2cc(F)cc(F)c2)c(F)c1F` [Compound 771], the pest or weed control at 250 g/ha in test [1] was found to be 0%; in test [2] it was 90%; in test [3] it was 100%; with rice (Oryra sativa), 20%. Further, in test [4], the plant injury at 125 g/ha was found to be 30%.

With `O=C1NC[C@H](c2ccc3c(c2)CCO3)[C@H]1C(=O)Nc1ccccc1F` [Compound 786], the pest or weed control at 250 g/ha in test [1] amounted to 40%; in test [2] it was 0%; in test [3], 70%; in the test on rice (Oryra sativa) it was 0%. Also, the plant injury at 125 g/ha in test [4] came out at 0%.

`Cc1cc([C@H]2CN(C)C(=O)[C@@H]2C(=O)Nc2cccc(F)c2F)cc(C)c1C` [Compound 796]: the pest or weed control at 250 g/ha in test [1] turned out to be 0%; in test [2], 70%; in test [3], 90%; in the test with rice (Oryra sativa), 40%. In test [4] (Postemergence, 31 g ai/ha, visual injury after approx. 10 d, 0 to 100 scale, 0 no effect, 100 complete control), the plant injury at 31 g/ha is 30%.
